Laboratory results taken from patent publication US4107188A, “Pregnanes” (Hoffmann-La Roche Inc., priority 1977, dated 1978).

Legend:
[1] = 4-14C-cholesterol appearance in thoracic duct lymph of rats after oral administration; type: in vivo, female albino rats (Charles River); details: 100 mg orally, female albino rats, vs Na-TC control
Protocol: The lowering of the cholesterol levels in mammals by the administration of the compound of formula I-B can be seen from the fact that when 100 mg of 7-(3alpha, 12alpha-dihydroxy-5beta-pregnane-20-yl)-3,5-heptadienoic acid was administered orally to female albino rats, the cholesterol level in the lymph was decreased after administration by 60% over the first 8 hours and 91% over the next 9 to 24 hr. period after administration as compared to the control. In this procedure, female albino rats (Charles River), weighing 300 ± 10 g were kept on a Purina chow diet ad libitum until the time of operation. […] This preparation enabled the production of lymph at a constant rate, the infusion of a bile salt, and the simultaneous collection of bile. All animals received, after operation, a continuous duodenal infusion of sodium taurocholate (Na-TC) in 0.85% NaCl. One day after operation, the rats were given, by stomach intubation, an emulsion containing about 4% triolein, 20 μC of 4-^14 C-cholesterol (Specific Activity 61.7 mC/mM, 159 μ C/mg), 2 mg of cholesterol, in addition to protein, carbohydrate, and saline. Both the Na-TC and the cholesterol carrier employed gave a single spot on either thin layer or glass fiber chromatograph so no further purification was attempted. […] An aliquot of the lipid extract was placed on a small piece of glass fiber paper and counted. […]

rat pancreatic lipase = biological target: T1, rat pancreatic lipase (Rattus norvegicus, UniProt P27657); experiment: Inhibition of rat pancreatic lipase activity in vitro; type: biochemical; details: 14C-triolein emulsion, pH 8.6, 20 min. at 37° C
T1 sequence (P27657 17-465): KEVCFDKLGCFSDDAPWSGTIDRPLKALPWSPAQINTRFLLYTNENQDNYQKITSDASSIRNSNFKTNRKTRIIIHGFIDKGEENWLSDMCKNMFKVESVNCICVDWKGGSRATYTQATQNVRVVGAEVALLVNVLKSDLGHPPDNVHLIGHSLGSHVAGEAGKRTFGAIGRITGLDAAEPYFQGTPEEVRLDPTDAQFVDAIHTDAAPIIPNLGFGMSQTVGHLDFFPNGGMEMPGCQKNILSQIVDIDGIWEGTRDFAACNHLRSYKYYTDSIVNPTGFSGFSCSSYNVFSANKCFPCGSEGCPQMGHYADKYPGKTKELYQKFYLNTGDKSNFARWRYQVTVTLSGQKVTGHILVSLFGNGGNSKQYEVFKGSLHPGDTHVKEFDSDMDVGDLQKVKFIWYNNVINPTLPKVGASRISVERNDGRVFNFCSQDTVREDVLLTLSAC
Protocol: Dietary long-chain triglycerides must be hydrolyzed by pancreatic lipase in the duodenum before absorption can occur. […] The capacity of compounds of formula I to inhibit rat pancreatic lipase in vitro is seen by the action of the following compounds:
The ability of compounds to inhibit rat pancreatic lipase is determined by analyzing the nmoles of free fatty acid [oleic acid] released from [^14 C]-triolein. Compounds of A and B are added to an emulsion consisting of: 200,000 dmp ^14 C-triolein, 7.5 mg triolein, 0.75 mg sodium taurocholate, 15 mg bovine serum albumin and 0.9 ml 0.2 M tris-HCl - 0.15 M NaCl, pH 8.6, per assay. Water and/or pancreatic lipase is added to make an assay volume of 1.0 ml. The emulsion is incubated for 20 min. at 37° C in a shaking water bath. The reaction is stopped by the addition of isopropanol; H2 SO4 (40:1). The lipids are extracted twice with 3 ml volumes of hexane. The liberated fatty acids are extracted with 2 ml of 0.1 N aqueous KOH in 50% methanol. A 1 ml aliquot of the KOH layer is paced in a scintillation vial with 10 ml of 2,5-bis-2-(5-tertiarybutyl benzoxazolyl)thiophene. The radioactivity is determined by a scintillation counter. Data are expressed as nmoles free fatty acid [oleic acid] releated.

Structure (SMILES) | decrease of cholesterol level in the lymph as compared to the control ([1]; 9 to 24 hr. period after administration) | decrease of cholesterol level in the lymph as compared to the control ([1]; over the first 8 hours after administration) | Ki (rat pancreatic lipase)
C[C@H](C/C=C/C=C/CC(=O)O)[C@H]1CC[C@H]2[C@@H]3CC[C@@H]4C[C@H](O)CC[C@]4(C)[C@H]3C[C@H](O)[C@]12C [Compound A, 7(3α,12α-dihydroxy-5β-pregnane-20-yl)-3,5-heptadienoic acid] | 91% | 60% | 1 mM
CC(CCCCC(=O)O)[C@H]1CC[C@H]2[C@@H]3CC[C@@H]4C[C@H](O)CC[C@]4(C)[C@H]3C[C@H](O)[C@]12C (stereo partly drawn) [Compound B, 5-(3α,12α-dihydroxy-5βpregnane-20-yl)pentanoic acid] | – | – | 9 mM
